Measured values reported in publication PMC4232510, “Identification of Functionally Important Residues of the Rat P2X4 Receptor by Alanine Scanning Mutagenesis of the Dorsal Fin and Left Flipper Domains” (PLoS ONE, 2014).
Numbering of substitutions follows the chain as printed. Where “and” joins values, the source holds several entries; their conditions need not be identical. Equal entries are not always repeated.

Experiments:
Type in all cases: cell-based
[1] = biological target: T1, wild type (WT) rP2X4R (Rattus norvegicus, UniProt P51577); experiment: whole-cell patch clamp, HEK293T cells expressing WT receptor; conditions: for relative responsiveness: 100 µM agonist 2 s, relative to ATP (100%); for EC50: naïve receptors, 2–5 s application
T1 construct: expressed in transfected cells; host or cells: HEK293T
T1 sequence (P51577 1-388): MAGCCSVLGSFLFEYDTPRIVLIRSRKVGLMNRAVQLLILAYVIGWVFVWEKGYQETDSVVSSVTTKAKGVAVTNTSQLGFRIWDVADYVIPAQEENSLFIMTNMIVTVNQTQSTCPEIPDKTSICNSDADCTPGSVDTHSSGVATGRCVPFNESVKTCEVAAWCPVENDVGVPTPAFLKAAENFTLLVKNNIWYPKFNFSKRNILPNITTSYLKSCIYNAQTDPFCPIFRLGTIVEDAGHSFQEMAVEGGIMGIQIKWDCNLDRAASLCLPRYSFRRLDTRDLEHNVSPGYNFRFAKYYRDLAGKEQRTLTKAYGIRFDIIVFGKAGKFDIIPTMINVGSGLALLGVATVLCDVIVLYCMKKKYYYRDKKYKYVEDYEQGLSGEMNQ
Description: (§1) To express the recombinant channels, we used human embryonic kidney (HEK) 293T cells (American Type Culture Collection, Rockville, MD, USA) grown in Dulbecco modified Eagle’s medium (Thermo Fisher Scientific, Waltham, MA) supplemented with 10% fetal bovine serum (Sigma-Aldrich, St Louis, MO), 50 U/ml penicillin and 50 µg/ml streptomycin (both Thermo Fisher Scientific, Waltham, MA) in a humidified 5% CO2 and 95% air at 37°C. Cells were cultured in 75 cm^2 plastic culture flasks (NUNC, Rochester, NY) for 36–72 hours until reaching 80–95% confluence. Before the day of transfection, the cells were plated on 35 mm culture dishes (Sarstedt, Newton, NC) and incubated at 37°C for at least 24 h. Transfection was done using 2 µg of either WT or mutant receptor DNA with 2 µl of JetPrime reagent in 2 ml of Dulbecco modified Eagle’s medium, according to manufacturer’s instructions (PolyPlus-transfection, Illkirch, France). Transfected cells were identified by the fluorescence signal of EGFP using the Olympus IX71 inverted research microscope with fluorescence illuminators (Model IX71; Olympus, Melville, NY).
(§2) cDNAs encoding the sequences of the rP2X4 and mutated subunits were subcloned into the pIRES2-EGFP vector (Clontech, Mountain View, CA, USA). To generate the mutants, oligonucleotides (synthesized and provided by VBC-Genomics, Vienna, Austria or Sigma Aldrich) containing specific mutagenesis mismatches were introduced into the rP2X4/pIRES2-EGFP template using PfU Ultra DNA polymerase (Thermo Fisher Scientific). A High-Speed Plasmid Mini Kit (Geneaid, Taipei City, Taiwan) was used to isolate the plasmids for transfection. Dye terminator cycle sequencing (ABI PRISM 3100, Applied Biosystems, Foster City, CA) was used to identify and verify the presence of the mutations. The sequencing was performed by the DNA Sequencing Laboratory, Institute of Microbiology, ASCR, Prague.
(§3) ATP-induced currents were recorded from whole cells clamped to −60 mV using an Axopatch 200B patch-clamp amplifier (Axon Instruments, Union City, CA). The recordings were captured and stored using the Digidata 1322A and pClamp9 software package (Axon Instruments). During the experiments, the cell culture was perfused with a bath solution containing: 142 mM NaCl, 3 mM KCl, 2 mM CaCl2, 1 mM MgCl2, 10 mM 4-(2-Hydroxyethyl)piperazine-1-ethanesulfonic acid (HEPES) and 10 mM D-glucose, adjusted to pH 7.3 with 1 M NaOH. The patch electrodes were filled with a solution containing: 154 mM CsCl, 11 mM EGTA and 10 mM HEPES, adjusted to pH 7.2 with 1.6 M CsOH. The whole-cell configuration was used to abolish the influence of natively present metabotropic receptors for ATP and we used intracellular cesium to block any kind of possible background potassium conductance. Potency of ATP was measured based on the activation of naïve (not previously stimulated) receptors using a short (2–5 s) application of various concentrations of ATP. The results are expressed as molar concentration of ATP required to produce 50% of the maximal response (EC50). One or two responses were recorded from one cell, if not otherwise stated, and responses from different cells were pooled. The maximum current amplitude (Imax) was measured in response to application of supramaximal concentrations (100–1000 µM) of ATP. Responsiveness to P2XR agonists 2-MeS-ATP, ATPγS, BzATP, and α,β-meATP, all applied in 100 µM concentration, was expressed as percentage of response in comparison to 100 µM ATP treatment for selected mutants. In all mutants, the whole cell currents were also measured in the presence of 3 µM IVM, which was dissolved in dimethyl sulfoxide, stored in stock solutions at 10 mM, and diluted to required concentrations in bath solution in the day of experiment. The control and drug containing solutions were applied via a rapid (exchange time 30–40 ms) perfusion system (RSC-200, BIOLOGIC, Claix, France). All other chemicals are from Sigma-Aldrich. […]

[2] = biological target: T2, rP2X4R N208A mutant (Rattus norvegicus, UniProt P51577, N208A); experiment: whole-cell patch clamp, HEK293T cells expressing mutant; conditions: for relative responsiveness: 100 µM agonist 2 s, relative to ATP (100%)
T2 construct: expressed in transfected cells; host or cells: HEK293T
T2 sequence (P51577 1-388 N208A): T1 sequence (P51577 1-388) with N208A
Description: as §1, §2, §3

[3] = biological target: T3, rP2X4R P290A mutant (Rattus norvegicus, UniProt P51577, P290A); experiment: as above; conditions: for relative responsiveness: 100 µM agonist 2 s, relative to ATP (100%)
T3 construct: expressed in transfected cells; host or cells: HEK293T
T3 sequence (P51577 1-388 P290A): T1 sequence (P51577 1-388) with P290A
Description: as §1, §2, §3

[4] = 100 µM ATP 60 s, biexponential fit
[5] = contribution of τdes2, 100 µM ATP 60 s
[6] = decay after removal of 1 or 3 µM ATP, 3 µM IVM
[7] = naïve receptors, 2–5 s application
[8] = 3 µM IVM 4-6 min vs IVM-untreated

“2′(3′-O-(4-Benzoylbenzoyl)adenosine 5′-triphosphate [BzATP]” was tested, and the relative responsiveness [1] was 38% and 38.2±3.4%, the EC50 [1] was 11.1 ± 2.9 µM and the relative responsiveness [2] was 33.4±5.4%. For the same compound, the relative responsiveness [3] was 16.9±3.2 %.
With `CSc1nc(N)c2ncn([C@@H]3O[C@H](COP(=O)(O)OP(=O)(O)OP(=O)(O)O)[C@@H](O)[C@H]3O)c2n1` [2-MeS-ATP, 2-(Methylthio)adenosine 5′-triphosphate] the relative responsiveness [1] was 67% and 67.3±4.6%, the EC50 [1] was 7.9 ± 1 µM and the relative responsiveness [2] was 60.0±11.2%. The relative responsiveness [3] was 50.7±3.7%.
`Nc1ncnc2c1ncn2[C@@H]1O[C@H](COP(=O)(O)OP(=O)(O)OP(=O)(O)O)[C@@H](O)[C@H]1O` [ATP] showed a τdes1 [1, 4] of 1.3 ± 0.2 s, a τdes2 [1, 4] of 9.0 ± 0.7 s and a relative responsiveness [1] of 100%. The Imax ([1]; 100–1000 µM ATP) was 2.2 ± 0.2 nA, the “Imax+IVM” value ([1]; ATP after 3 µM IVM 4-6 min) was 3.4 ± 0.3 nA and the “A2 /(A1+A2)” value [1, 5] was 63 ± 3%. For the same compound, the “τoff +IVM” value [1, 6] was 21 ± 1.0 s, the EC50 [1] was 2.3 ± 0.4 µM and the τdes ([1]; weighted, 100 µM ATP 60 s) was 6.0 ± 0.4 s. It also gave a τdes1 [2, 4] of 1.1 ± 0.8 s, a τdes2 [2, 4] of 8.7 ± 4.8 s and an Imax ([2]; 100–1000 µM ATP) of 1.7 ± 0.3 nA. For the same compound, the “Imax+IVM” value ([2]; ATP after 3 µM IVM 4-6 min) was 3.6 ± 0.3 nA, the “A2 /(A1+A2)” value [2, 5] was 77 ± 4% and the “τoff +IVM” value [2, 6] was 9.1 ± 0.2 s. For the same compound, the EC50 [2, 7] was 7.6 ± 2.1 µM, the τdes ([2]; weighted, 100 µM ATP 60 s) was 6.8 ± 3.5 s and the τdes1 [3, 4] was 0.8 ± 0.1 s. For the same compound, the τdes2 [3, 4] was 12.0 ± 1.5 s, the Imax ([3]; 100–1000 µM ATP) was 0.9 ± 0.1 nA and the “Imax+IVM” value ([3]; ATP after 3 µM IVM 4-6 min) was 3.3 ± 0.5 nA. For the same compound, the “A2 /(A1+A2)” value [3, 5] was 53 ± 3%, the “τoff +IVM” value [3, 6] was 13 ± 1.4 s and the EC50 [3, 7] was 8 ± 3.4 µM. For the same compound, the τdes ([3]; weighted, 100 µM ATP 60 s) was 6.6 ± 0.5 s.
For `Nc1ncnc2c1ncn2[C@@H]1O[C@H](CO[P@](=O)(O)O[P@](=O)(O)O[P@@](=O)(O)S)[C@@H](O)[C@H]1O` [ATPγS, Adenosine 5′-(γ-thio)triphosphate], the relative responsiveness [1] was 50% and 49.6±3.5%, the EC50 [1] was 8.4 ± 1.8 µM and the relative responsiveness [2] was 42.2±5.2%. For the same compound, the relative responsiveness [3] was 37.0±11.0%.
`CC[C@H](C)[C@H]1O[C@]2(CC[C@@H]1C)C[C@@H]1C[C@@H](C/C=C(\C)[C@@H](O[C@H]3C[C@H](OC)[C@@H](O[C@H]4C[C@H](OC)[C@@H](O)[C@H](C)O4)[C@H](C)O3)[C@@H](C)/C=C/C=C3\CO[C@@H]4[C@H](O)C(C)=C[C@@H](C(=O)O1)[C@]34O)O2` [IVM, ivermectin] was tested, and the “Fold incr. Imax” value [1, 8] was 1.7 ± 0.2 fold, the “Fold incr. Imax” value [2, 8] was 2.3 ± 0.5 fold and the “Fold incr. Imax” value [3, 8] was 3.7 ± 0.2 fold.
`Nc1ncnc2c1ncn2C1OC(COP(=O)(O)CP(=O)(O)OP(=O)(O)O)C(O)C1O` (stereo not drawn) [α,β-meATP, α,β-methyleneadenosine 5′-triphosphate] was tested, and the relative responsiveness [1] was 32% and 31.8±3.3%, the EC50 [1] was 62 ± 18 µM and the relative responsiveness [2] was 28.5±2.3%. The relative responsiveness [3] was 17.8±2.4 %.
